Data taken from PubChem BioAssay (NCI).
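The compound was tested at five concentrations on cells cultured in 96-well plates, with a 48-hour exposure period. GI50: concentration for 50% inhibition of growth. The concentration for full growth arrest is given as TGI.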

Assays:
Experiment in all cases: NCI anticancer screen, dose series, 48 h
[1] = system: 786-0 renal
[2] = system: A498 renal
[3] = system: A549 NSCLC
[4] = system: ACHN renal
[5] = system: BT-549 breast
[6] = system: CAKI-1 renal
[7] = system: CCRF-CEM leukemia
[8] = system: COLO 205 colon
[9] = system: DU-145 prostate
[10] = system: EKVX NSCLC
[11] = system: HCC-2998 colon
[12] = system: HCT-116 colon
[13] = system: HCT-15 colon
[14] = system: HL-60(TB) leukemia
[15] = system: HOP-62 NSCLC
[16] = system: HS 578T breast
[17] = system: HT29 colon
[18] = system: IGROV1 ovarian
[19] = system: K-562 leukemia
[20] = system: KM12 colon
[21] = system: LOX IMVI melanoma
[22] = system: M14 melanoma
[23] = system: MALME-3M melanoma
[24] = system: MCF7 breast
[25] = system: MDA-MB-231 breast
[26] = system: MDA-MB-435
[27] = system: MOLT-4 leukemia
[28] = system: NCI-H226 lung
[29] = system: NCI-H23 lung

O=C(O)c1nc(NCc2nc3cc(Cl)ccc3o2)n[nH]1
GI50 [1]: > 100 µM | TGI [1]: > 100 µM | GI50 [2]: > 100 µM | TGI [2]: > 100 µM | GI50 [3]: > 100 µM | TGI [3]: > 100 µM | GI50 [4]: > 100 µM | TGI [4]: > 100 µM | GI50 [5]: > 100 µM | TGI [5]: > 100 µM | GI50 [6]: > 100 µM | TGI [6]: > 100 µM | GI50 [7]: > 100 µM | TGI [7]: > 100 µM | GI50 [8]: > 100 µM | TGI [8]: > 100 µM | GI50 [9]: > 100 µM | TGI [9]: > 100 µM | GI50 [10]: > 100 µM | TGI [10]: > 100 µM | GI50 [11]: > 100 µM | TGI [11]: > 100 µM | GI50 [12]: > 100 µM | TGI [12]: > 100 µM | GI50 [13]: > 100 µM | TGI [13]: > 100 µM | GI50 [14]: > 100 µM | TGI [14]: > 100 µM | GI50 [15]: > 100 µM | TGI [15]: > 100 µM | GI50 [16]: > 100 µM | TGI [16]: > 100 µM | GI50 [17]: > 100 µM | TGI [17]: > 100 µM | GI50 [18]: > 100 µM | TGI [18]: > 100 µM | GI50 [19]: > 100 µM | TGI [19]: > 100 µM | GI50 [20]: > 100 µM | TGI [20]: > 100 µM | GI50 [21]: > 100 µM | TGI [21]: > 100 µM | GI50 [22]: > 100 µM | TGI [22]: > 100 µM | GI50 [23]: > 100 µM | TGI [23]: > 100 µM | GI50 [24]: > 100 µM | TGI [24]: > 100 µM | GI50 [25]: > 100 µM | TGI [25]: > 100 µM | GI50 [26]: > 100 µM | TGI [26]: > 100 µM | GI50 [27]: > 100 µM | TGI [27]: > 100 µM | GI50 [28]: > 100 µM | TGI [28]: > 100 µM | GI50 [29]: > 100 µM
